Source: publication PMC11475408, “All‐Inorganic Polyoxometalates Act as Superchaotropic Membrane Carriers” (Advanced Materials (Deerfield Beach, Fla.), 2023)

Assays:
polyarginine = assay: ITC, POM into polyarginine; type: binding; settings: 10 mM Tris, pH 7.4, value is Ka divided by 10^7
Protocol: All experiments were performed with a VP‐ITC MicroCalorimeter from MicroCal, Int,. at atmospheric pressure and 298.15 K. Solutions were degassed and thermostatic prior to the titration experiments in a ThermoVac accessory. A constant volume of POM ([PVW11]^4‒ or [SiMoW11]^4‒) (10 µL per injection) was injected into the oligopeptide solution (heptaArg, protamine, polyArg or heptaLys) in 10 mM Tris, pH 7.4 to determine the apparent binding affinity of [PVW11]^4‒ and [SiMoW11]^4‒ with the oligopeptides. Dilution heats were determined by titration of the POM into buffer and subtracted from the reaction heat. The neat reaction heat was fitted with Origin 7.0 software by using the “one‐set‐of‐sites” model to obtain the complex stability constant (K a) and molar reaction enthalpy (∆H°). The free energy (∆G°) and entropy changes (∆S°) were obtained according to the relation: ∆G° = −RTlnK a = ∆H°−T∆S°.
4. Supramolecular interactions
Figure S10. Microcalorimetric titrations in 10 mM Tris, pH 7.4: Raw ITC data (top) for the sequential injections of POM solution into an oligoarginine solution, and apparent reaction heats (bottom) obtained from the integration of the calorimetric traces. […]
values and ± 0.5 kcal mol‒1 for ΔH and TΔS (duplicate measurements). Note that none of these interactions lead to any precipitation or aggregates, confirmed by the absence of any detectable signal by DLS. […]

[1] = U-tube transport experiment through CHCl3; settings: CHCl3 bulk phase; CF 100, POM 50, heptaArg 10 µM; 24 h; fluorescence
Description: In the U‐tube experiments, the trans phase contained only buffer, and the cis phase is loaded with combinations of CF, carrier (POM), and cargo (heptaArg). Aliquots of the trans phase are taken and evaluated by fluorescence at different times. The trans phase is initially (t = 0) nonfluorescent, but the transport of CF from the cis phase through the chloroform barrier leads to fluorescence, signaling successful transport. […] This is consistent with translocation of a POM•heptaArg•CF complex through the organic phase, in support of the mechanism in Figure 1c.
The U‐tubes were house‐made, similar to those of Rebek^[ [82] ^] and Matile,^[ [54] ^] consisting in a small beaker with a central glass barrier, separating the two aqueous layers, cis ([…]) and trans (receiving phase), but allowing an interface chloroform layer below the cis and trans phases. 3 mL CHCl3 are placed into the U‐tube and 1 mL of the cis (combinations of carrier (POM), cargo (heptaArg) and CF in buffer) and trans (1 mL buffer) phases were added. The organic phase was stirred at 700 rpm at room temperature. Aliquots (25 µL) from the trans phase were taken at different times, 400 µL of buffer were added and measured by fluorescence.

CHO‐K1 cells = assay: FITC-Arg8 uptake in live cells, confocal imaging; type: cell-based, Chinese hamster; settings: carrier 5 µM, 5 min, then FITC-Arg8 5 µM, 30 min, 37 °C, four biological replicates
Protocol: CHO‐K1 cells were plated into µ‐Slide 8‐well plates (ibidi) at a density of ≈1 × 10^5 cells per well (per 1 mL) and incubated for 24 h in Ham's F‐12 medium containing 10% v/v fetal bovine serum and 1.0% penicillin streptomycin at 37 °C in a 5% CO2 atmosphere. The cells were washed twice with Hank's buffer, incubated for 5 min at 37 °C in Ham's F‐12 medium without phenol red with carrier (5 µM), and subsequently in Ham's F‐12 medium without phenol red with 5 µM FITC‐Arg8 for 30 min at 37 °C. Cells in the absence of carrier were used as control. The cells were washed twice with Hank's buffer containing 100 µg mL^−1 heparin and then washed twice with Ham's F‐12 medium without phenol red. The nuclear staining was performed by incubating the cells with 10 µg mL^−1 Hoechst 33 342 (bis‐benzimide H33342 trihydrochloride) for 10 min at 37 °C. Cells were directly imaged as stated above.

Substance	Ka/ 107, polyarginine (polyarginine)	Carrier behaviour in U-tube (CF in trans phase) [1]	FITC-Arg8 uptake promoted by carrier (CHO‐K1 cells)	FITC-Arg8 uptake promoted by carrier (CHO‐K1 cells; listed as [PW12]3‒)
K4[α‐Si^IVMo^VIW^VI 11O40]·24H2O [[SiMoW11]^4‒]	1.6 M‒1	act as “real” carriers	–	–
K4[α‐P^VV^VW^VI 11O40]·4H2O [[PVW11]^4‒]	3.5 M‒1	act as “real” carriers	–	–
Na3[α‐P^VW^VI 12O40]·nH2O [[PW12]^3‒]	–	–	some apparent cellular uptake, but the cell morphology was highly compromised	highly compromised
